Assay results as given in patent US20230374038A1, “MODULATORS OF CYSTIC FIBROSIS TRANSMEMBRANE CONDUCTANCE REGULATOR” (VERTEX PHARMACEUTICALS INCORPORATED, priority 2020, published 2023).

Target: CFTR (Homo sapiens, UniProt P13569)
Assay: Membrane Potential Dye, Enteroid Assay A
Type: cell-based
Conditions: for EC50: read-out: Ent. A EC50
Protocol: Base medium (ADF+++) consisted of Advanced DMEM/Ham's F12, 2 mM Glutamax, 10 mM HEPES, 1 µg/mL penicillin/streptomycin.
Intestinal enteroid maintenance medium (IEMM) consisted of ADF+++, 1× B27 supplement, 1× N2 supplement, 1.25 mM N-acetyl cysteine, 10 mM Nicotinamide, 50 ng/mL hEGF, 10 nM Gastrin, 1 pg/mL hR-spondin-1, 100 ng/mL hNoggin, TGF-b type 1 inhibitor A-83-01, 100 μg/mL Primocin, […] P38 MAPK inhibitor SB202190.
Bath 1 Buffer consisted of 1 mM MgCl2, 160 mM NaCl, 4.5 mM KCl, 10 mM HEPES, 10 mM Glucose, 2 mM CaCl2).
Chloride Free Buffer consisted of 1 mM Magnesium Gluconate, 2 mM Calcium Gluconate, 4.5 mM Potassium Gluconate, 160 mM Sodium Gluconate, 10 mM HEPES, 10 mM Glucose.
Bath1 Dye Solution consisted of Bath 1 Buffer, 0.04% Pluronic F127, […] Methyl Oxonol, 30 μM CaCCinh-A01, 30 μM Chicago Sky Blue.
Chloride Free Dye Solution consisted of Chloride Free Buffer, 0.04% Pluronic F127, 20 μM Methyl Oxonol, 30 μM CaCCinh-A01, 30 μM Chicago Sky Blue.
Chloride Free Dye Stimulation Solution consisted of Chloride Free Dye Solution, 10 μM forskolin, 100 μM IBMX, and 300 nM Compound III.
Human intestinal epithelial enteroid cells were obtained from the Hubrecht Institute for Developmental Biology and Stem Cell Research, Utrecht, The Netherlands and expanded in T-Flasks as previously described (Dekkers J F, Wiegerinck C L, de Jonge H R, Bronsveld I, Janssens H M, de Winter-de Groot K M, Brandsma A M, de Jong N W M, Bijvelds M J C, Scholte B J, Nieuwenhuis E E S, van den Brink S, Clevers H, van der Ent C K, Middendorp S and M Beekman J M. A functional CFTR assay using primary cystic fibrosis intestinal organoids. Nat Med. 2013 July; 19(7):939-45.).
Cells were recovered in cell recovery solution, collected by centrifugation at 650 rpm for 5 min at 4° C., resuspended in TryPLE and incubated for 5 min at 37° C. Cells were then collected by centrifugation at 650 rpm for 5 min at 4° C. and resuspended in IEMM containing 10 μM ROCK inhibitor (RI). The cell suspension was passed through a 40 μm cell strainer and resuspended at 1×10^6 cells/mL in IEMM containing 10 μM RI. Cells were seeded at 5000 cells/well into multi-well plates and incubated for overnight at 37° C., 95% humidity and 5% CO2 prior to assay.
Enteroid cells were incubated with test compound in IEMM for 18-24 hours at 37° C., 95% humidity and 5% CO2. […] Briefly, cells were washed 5 times in Bath 1 Buffer. Bath 1 Dye Solution was added, and the cells were incubated for 25 min at room temperature. Following dye incubation, cells were washed 3 times in Chloride Free Dye Solution. Chloride transport was initiated by addition of Chloride Free Dye Stimulation Solution and the fluorescence signal was read for 15 min. […] Chloride transport was then expressed as a percentage of the chloride transport following treatment with 3 μM (S)—N-((6-aminopyridin-2-yl)sulfonyl)-6-(3-fluoro-5-isobutoxyphenyl)-2-(2,2,4-trimethylpyrrolidin-1-yl)nicotinamide, 3 μM (R)-1-(2,2-difluorobenzo[d][1,3]dioxol-5-yl)-N-(1-(2,3-dihydroxypropyl)-6-fluoro-2-(1-hydroxy-2-methylpropan-2-yl)-1H-indol-5-yl)cyclopropanecarboxamide and 300 nM acute N-[2,4-bis(1,1-dimethylethyl)-5-hydroxyphenyl]-1,4-dihydro-4-oxoquinoline-3-carboxamide triple combination control (% Activity).

Chain of CFTR (P13569 with tags, fused parts or gaps DEL508-508): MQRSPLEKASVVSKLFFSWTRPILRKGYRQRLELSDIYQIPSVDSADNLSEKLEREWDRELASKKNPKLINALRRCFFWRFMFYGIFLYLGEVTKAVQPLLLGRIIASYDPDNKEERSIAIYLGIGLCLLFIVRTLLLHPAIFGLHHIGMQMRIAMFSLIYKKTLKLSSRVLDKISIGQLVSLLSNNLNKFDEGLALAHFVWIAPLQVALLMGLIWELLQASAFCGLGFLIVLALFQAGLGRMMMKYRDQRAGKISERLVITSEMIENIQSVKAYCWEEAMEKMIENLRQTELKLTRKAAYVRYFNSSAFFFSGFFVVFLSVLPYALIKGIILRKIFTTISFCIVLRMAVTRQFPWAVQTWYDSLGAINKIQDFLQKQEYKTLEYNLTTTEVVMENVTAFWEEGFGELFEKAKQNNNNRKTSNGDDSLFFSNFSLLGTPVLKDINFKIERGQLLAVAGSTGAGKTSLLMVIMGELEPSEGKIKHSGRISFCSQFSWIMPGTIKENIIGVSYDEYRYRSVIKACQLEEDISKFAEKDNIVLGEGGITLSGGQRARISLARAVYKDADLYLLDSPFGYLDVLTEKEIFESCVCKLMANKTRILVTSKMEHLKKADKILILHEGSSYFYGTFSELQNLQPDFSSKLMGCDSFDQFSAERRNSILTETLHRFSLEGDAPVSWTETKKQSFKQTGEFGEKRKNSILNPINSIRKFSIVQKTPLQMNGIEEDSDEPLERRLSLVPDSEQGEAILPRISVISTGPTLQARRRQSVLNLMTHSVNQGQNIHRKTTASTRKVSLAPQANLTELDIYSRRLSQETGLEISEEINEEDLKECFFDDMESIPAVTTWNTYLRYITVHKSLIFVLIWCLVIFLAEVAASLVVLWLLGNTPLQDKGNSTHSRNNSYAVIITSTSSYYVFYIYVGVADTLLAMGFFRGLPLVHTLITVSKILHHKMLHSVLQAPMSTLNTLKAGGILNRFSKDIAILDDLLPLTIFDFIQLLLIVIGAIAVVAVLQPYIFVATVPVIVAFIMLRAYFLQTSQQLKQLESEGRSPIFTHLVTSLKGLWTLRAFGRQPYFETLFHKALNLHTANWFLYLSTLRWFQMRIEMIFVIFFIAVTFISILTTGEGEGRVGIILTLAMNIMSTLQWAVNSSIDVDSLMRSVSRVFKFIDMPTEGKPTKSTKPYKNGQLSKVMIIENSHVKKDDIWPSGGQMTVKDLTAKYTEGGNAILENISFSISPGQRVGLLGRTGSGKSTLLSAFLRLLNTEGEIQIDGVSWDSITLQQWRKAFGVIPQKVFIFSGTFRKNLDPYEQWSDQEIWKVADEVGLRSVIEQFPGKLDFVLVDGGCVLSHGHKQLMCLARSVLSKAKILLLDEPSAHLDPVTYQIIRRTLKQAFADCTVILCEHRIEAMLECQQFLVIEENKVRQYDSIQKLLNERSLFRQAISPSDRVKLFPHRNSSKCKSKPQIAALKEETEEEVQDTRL

Row | SMILES | Ent. A Max Activity | EC50 [nM]
1 | CCc1c2nc(nc1-c1c(C)cccc1OC)NS(=O)(=O)c1cccc(c1)NC(=O)c1cccc(c1)O2 [Compound 6, 4-Ethyl-5-(2-methoxy-6-methylphenyl)-2-oxa-9λ^6-thia-6,8,15,23-tetraazatetracyclo[15.3.1.13,7.110,14]tricosa-1(21),3,5,7(23),10(22),11,13,17,19-nonaene-9,9,16-trione] | ++ (++ is 30-60%) | 1000 to 3000
2 | CCc1c2nc(nc1-c1cccc(OCC(C)C)c1)NS(=O)(=O)c1cccc(c1)NC(=O)c1cccc(c1)O2 [Compound 27] | + (+ is <30%) | < 1000
3 | CCc1c2nc(nc1-c1ccccc1)NS(=O)(=O)c1cccc(c1)NC(=O)c1cccc(c1)O2 [Compound 30] | + (+ is <30%) | –
4 | CC(C)Oc1cccc(-c2nc3nc(c2C(C)(C)C)OC2CN(Cc4ccccc42)C(=O)c2cccc(c2)S(=O)(=O)N3)c1 (stereo not shown) [Compound 44] | + (+ is <30%) | –
5 | CCc1c2nc(nc1-c1cccnc1C)NS(=O)(=O)c1cccc(c1)NC(=O)c1cccc(c1)O2 [Compound 7, 4-Ethyl-5-(2-methylpyridin-3-yl)-2-oxa-9λ^6-thia-6,8,15,23-tetraazatetracyclo[15.3.1.13,7.110,14]tricosa-1(21),3,5,7(23),10(22),11,13,17,19-nonaene-9,9,16-trione] | + (+ is <30%) | –
6 | CCc1c2nc(nc1-c1ccccc1OC)NS(=O)(=O)c1cccc(c1)NC(=O)c1cccc(c1)O2 [Compound 23] | ++ (++ is 30-60%) | 3000 to 30000
7 | CCc1c2nc(nc1-c1c(C)cccc1C)NS(=O)(=O)c1cccc(c1)C(=O)NCC(c1ccc(C(C)(C)C)cc1)O2 (stereo not shown) [Compound 178] | +++ (+++ is >60%) | < 1000
8 | CCOc1ccccc1-c1nc2nc(c1CC)Oc1cccc(c1)C(=O)Nc1cccc(c1)S(=O)(=O)N2 [Compound 24] | + (+ is <30%) | 1000 to 3000
9 | CCc1c2nc(nc1-c1cccc(OC(C)C)c1)NS(=O)(=O)c1cccc(c1)NC(=O)c1cccc(c1)O2 [Compound 28] | + (+ is <30%) | 1000 to 3000
10 | CCc1c2nc(nc1-c1cccnc1OC)NS(=O)(=O)c1cccc(c1)NC(=O)c1cccc(c1)O2 [Compound 20] | + (+ is <30%) | –
11 | CCc1c2nc(nc1-c1cnccc1C)NS(=O)(=O)c1cccc(c1)NC(=O)c1cccc(c1)O2 [Compound 21] | + (+ is <30%) | –
12 | CCc1c2nc(nc1-c1ccncc1C)NS(=O)(=O)c1cccc(c1)NC(=O)c1cccc(c1)O2 [Compound 22] | + (+ is <30%) | –

Continued, values first:

Row | Ent. A Max Activity | EC50 [nM] | SMILES
13 | +++ (+++ is >60%) | < 1000 | CC(C)CCc1ccccc1-c1nc2nc(c1C(F)(F)F)OC1CN(Cc3ccccc31)C(=O)c1cccc(c1)S(=O)(=O)N2 (stereo not shown) [Compound 41]
14 | + (+ is <30%) | – | CC(C)(C)c1c2nc(nc1-c1ccccc1)NS(=O)(=O)c1cccc(c1)C(=O)N1Cc3ccccc3C(C1)O2 (stereo not shown) [Compound 46]
15 | + (+ is <30%) | – | Cc1ncccc1-c1nc2nc(c1C(F)(F)F)OC1CN(Cc3ccccc31)C(=O)c1cccc(c1)S(=O)(=O)N2 (stereo not shown) [Compound 40, 12-(2-Methyl-3-pyridyl)-8,8-dioxo-13-(trifluoromethyl)-15-oxa-8λ^6-thia-1,9,11,25-tetrazapentacyclo[14.7.1.13,7.110,14.017,22]hexacosa-3,5,7(26),10(25),11,13,17(22),18,20-nonaen-2-one]
16 | + (+ is <30%) | – | Cc1ncccc1-c1nc2nc(c1C(C)(C)C)OC1CN(Cc3ccccc31)C(=O)c1cccc(c1)S(=O)(=O)N2 (stereo not shown) [Compound 45]
17 | ++ (++ is 30-60%) | < 1000 | Cc1ccccc1-c1nc2nc(c1C(C)(C)C)OC1CN(Cc3ccccc31)C(=O)c1cccc(c1)S(=O)(=O)N2 (stereo not shown) [Compound 39, 13-tert-Butyl-12-(o-tolyl)-8,8-dioxo-15-oxa-8λ^6-thia-1,9,11,25-tetrazapentacyclo[14.7.1.13,7.110,14.017,22]hexacosa-3,5,7(26),10(25),11,13,17(22),18,20-nonaen-2-one]
